Experimental data reported in ChEMBL document CHEMBL4190273, “Mushroom-Derived Indole Alkaloids” (J Nat Prod, 2017).
Values after ≈ are worked out from the molar mass of the structure shown. *1 amine or outer side, *2 acyl side, *3 side chain or, on linkers, in order; H or OH if unused. Where a SMILES comes first, the peptide text is derived from it. [ ]: non-standard residue; d: D form. X1 = C[C@@H]([C@H](C)OC(=O)CC(C)(C)O)[C@@H](C(=O)[*:2])N(C)[*:1]; X5 = O=C([C@@H]1C[C@@]2(O)c3ccccc3N(O)[C@H]2N1[*:1])[*:2]; X6 = CC(=O)O[C@@H](C)[C@H](C)[C@@H](C(=O)[*:2])N(C)[*:1]; X3 = O=C([C@@H]1C[C@@]2(O)c3ccccc3N[C@H]2N1[*:1])[*:2]; X7 = CC(=O)O[C@@H](C(=O)[*:2])N(C)[*:1]; NMeVal(β-OH) = CN[C@H](C(=O)O)C(C)(C)O; X2 = CC(=O)O[C@H](C(=O)[*:2])N(C)[*:1]; NMeI = CC[C@H](C)[C@H](NC)C(=O)O; X4 = CN([C@H](O)C(=O)[*:2])[*:1]; NMeV = CN[C@H](C(=O)O)C(C)C; Sar = CNCC(=O)O

Tests used:
Mus musculus = test: Antithrombotic activity in ICR mouse assessed as inhibition of platelet aggregation at 20 mg/kg, po measured after 1 hr relative to control; assay type: functional
Meloidogyne incognita = test: Nematicidal activity against Meloidogyne incognita; assay type: functional
[1] = Toxicity in ip dosed mouse; assay type: organism-based; conditions: in vivo
[2] = system: Mycobacterium tuberculosis; test: Antimycobacterial activity against Mycobacterium tuberculosis H37Ra; assay type: functional
[3] = system: Human immunodeficiency virus 1; test: Antiviral activity against HIV1 3B infected in human C8166 cells assessed as inhibition of virus-induced syncytia formation after 3 days; assay type: functional, organism-based; conditions: Human immunodeficiency virus 1, 3B, C8166, 72 h
[4] = Therapeutic Index, ratio of CC50 for human C8166 cells to EC50 for HIV1 3B infected in human C8166 cells; assay type: toxicity, cell-based; conditions: HIV-1 3B infected C8166 cells, read-out: Ratio CC50/EC50
Staphylococcus aureus = test: Antibacterial activity against Staphylococcus aureus R-209 assessed as diameter of inhibition zone at 50 ug measured after 24 hrs by agar diffusion method; assay type: functional; conditions: R-209, 24 h, read-out: DIZ
[5] = system: Corynebacterium glutamicum; test: Antibacterial activity against Corynebacterium lilium assessed as diameter of inhibition zone at 50 ug measured after 24 hrs by agar diffusion method; assay type: functional; conditions: read-out: DIZ
Bacillus subtilis [6] = test: Antibacterial activity against Bacillus subtilis IAM 1609 assessed as diameter of inhibition zone at 50 ug measured after 24 hrs by agar diffusion method; assay type: functional; conditions: IAM 1609, 24 h, read-out: DIZ
Bacillus subtilis [7] = test: Antibacterial activity against Bacillus subtilis IFO-12732 assessed as diameter of inhibition zone at 50 ug measured after 24 hrs by agar diffusion method; assay type: functional; conditions: IFO-12732, 24 h, read-out: DIZ

N[C@@H](Cc1c[nH]c2ccccc12)C(=O)NCC(=O)N[C@@H](CS)C(=O)O (H-Trp-Gly-Cys-OH)
inhibition in vivo at 20 mg/kg (Mus musculus): 83.3%

CC[C@H](C)[C@@H]1NC(=O)[C@H](C(C)C)N(C)C(=O)[C@@H]2C[C@@]3(O)c4ccccc4N(O)[C@H]3N2C(=O)CN(C)C(=O)[C@H]([C@@H](C)CC)N(C)C(=O)[C@H](C(C)C)NC(=O)[C@@H](O)N(C)C(=O)[C@H]([C@@H](C)CC)N(C)C(=O)[C@H](C(C)(C)O)N(C)C(=O)CN(C)C(=O)[C@H](C(C)C)N(C)C(=O)[C@H](C(C)C)N(C)C1=O (cyclo(I[NMeV][NMeV][Sar][NMeVal(β-OH)][NMeI][X4]V[NMeI][Sar][X5][NMeV]))
LD90 (Meloidogyne incognita): 2 to 5 µg/mL

CC[C@H](C)[C@@H]1NC(=O)CNC(=O)[C@@H]2Cc3c([nH]c4cc(O)ccc34)[S+]([O-])C[C@H](NC(=O)CNC1=O)C(=O)N[C@@H](CC(N)=O)C(=O)N1C[C@H](O)C[C@H]1C(=O)N[C@@H]([C@@H](C)[C@H](C)O)C(=O)N2 (some centres undefined)
LD50 [1]: 0.2 to 0.5 mg/kg

C=CC(C)(C)c1[nH]c2c(CC=C(C)C)cc(CC=C(C)C)cc2c1C[C@H]1NC(=O)[C@@H](C)NC1=O
MIC [2]: 170 µM (≈ 78.4 µg/mL)

O=C(O)c1cc2c([nH]c3ccccc32)c(-c2ccc(CO)o2)n1 [FLAZINE]
EC50 [3]: 2.36 µM
selectivity ratio [4]: 12.1

CC[C@H](C)[C@@H]1NC(=O)[C@H](C(C)C)N(C)C(=O)[C@@H]2C[C@@]3(O)c4ccccc4N[C@H]3N2C(=O)CN(C)C(=O)[C@H]([C@@H](C)CC)N(C)C(=O)[C@H](C(C)C)NC(=O)[C@H](OC(C)=O)N(C)C(=O)[C@H]([C@@H](C)[C@H](C)OC(C)=O)N(C)C(=O)[C@H](C(C)(C)O)N(C)C(=O)CN(C)C(=O)[C@H](C(C)C)N(C)C(=O)[C@H](C(C)C)N(C)C1=O (cyclo(I[NMeV][NMeV][Sar][NMeVal(β-OH)][X6][X7]V[NMeI][Sar][X3][NMeV]))
LD90 (Meloidogyne incognita): 2 to 5 µg/mL

CC[C@H](C)[C@@H]1NC(=O)CNC(=O)[C@@H]2Cc3c([nH]c4cc(O)ccc34)[S+]([O-])C[C@H](NC(=O)CNC1=O)C(=O)N[C@@H](CC(N)=O)C(=O)N1C[C@H](O)C[C@H]1C(=O)N[C@@H]([C@@H](C)[C@@H](O)CO)C(=O)N2 (some centres undefined)
LD50 [1]: 0.2 to 0.5 mg/kg

CC[C@H](C)[C@@H]1NC(=O)[C@H](C(C)C)N(C)C(=O)[C@@H]2C[C@@]3(O)c4ccccc4N[C@H]3N2C(=O)CN(C)C(=O)[C@H]([C@@H](C)CC)N(C)C(=O)[C@H](C(C)C)NC(=O)CN(C)C(=O)[C@H]([C@@H](C)CC)N(C)C(=O)[C@H](C(C)(C)O)N(C)C(=O)CN(C)C(=O)[C@H](C(C)C)N(C)C(=O)[C@H](C(C)C)N(C)C1=O (HELM PEPTIDE1{I.[meV].[meV].[Sar].[CN([C@H](C(=O)[*:2])C(C)(C)O)[*:1]].[meI].[Sar].V.[meI].[Sar].[O=C([C@@H]1C[C@@]2(O)c3ccccc3N[C@H]2N1[*:1])[*:2]].[meV]}$PEPTIDE1,PEPTIDE1,1:R1-12:R2$$$V2.0)
LD90 (Meloidogyne incognita): 2 to 5 µg/mL

CC[C@H](C)[C@@H]1NC(=O)[C@H](C(C)C)N(C)C(=O)[C@@H]2C[C@@]3(O)c4ccccc4N(O)[C@H]3N2C(=O)CN(C)C(=O)[C@H]([C@@H](C)CC)N(C)C(=O)[C@H](C(C)C)NC(=O)[C@@H](OC(C)=O)N(C)C(=O)[C@H]([C@@H](C)[C@H](C)OC(=O)CC(C)(C)O)N(C)C(=O)[C@H](C(C)(C)O)N(C)C(=O)CN(C)C(=O)[C@H](C(C)C)N(C)C(=O)[C@H](C(C)C)N(C)C1=O (cyclo(I[NMeV][NMeV][Sar][NMeVal(β-OH)][X1][X2]V[NMeI][Sar][X5][NMeV]))
LD90 (Meloidogyne incognita): 2 to 5 µg/mL

CC[C@@](C)(NC(=O)C(C)(C)NC(=O)[C@@H](NC(=O)[C@H](Cc1c[nH]c2ccccc12)NC(C)=O)C(C)C)C(=O)N[C@@H](C)C(=O)N[C@@H](CCC(N)=O)C(=O)N[C@@H](C)C(=O)NC(C)(C)C(=O)N[C@@H](CO)C(=O)NC(C)(C)C(=O)N[C@@H](C)C(=O)N[C@@H](CC(C)C)C(=O)NC(C)(C)C(=O)N[C@@H](CCC(N)=O)C(=O)N[C@H](CO)CC(C)C
zone of inhibition at 50 µg/disc (Staphylococcus aureus): 13 to 18 mm
zone of inhibition at 50 µg/disc [5]: 13 to 18 mm
zone of inhibition at 50 µg/disc (Bacillus subtilis [6]): 13 to 18 mm
zone of inhibition at 50 µg/disc (Bacillus subtilis [7]): 13 to 18 mm

CC[C@H](C)[C@@H]1NC(=O)[C@H](C(C)C)N(C)C(=O)[C@@H]2C[C@@]3(O)c4ccccc4N(O)[C@H]3N2C(=O)CN(C)C(=O)[C@H]([C@@H](C)CC)N(C)C(=O)[C@H](C(C)C)NC(=O)CN(C)C(=O)[C@H]([C@@H](C)CC)N(C)C(=O)[C@H](C(C)(C)O)N(C)C(=O)CN(C)C(=O)[C@H](C(C)C)N(C)C(=O)[C@H](C(C)C)N(C)C1=O (HELM PEPTIDE1{I.[meV].[meV].[Sar].[CN([C@H](C(=O)[*:2])C(C)(C)O)[*:1]].[meI].[Sar].V.[meI].[Sar].[O=C([C@@H]1C[C@@]2(O)c3ccccc3N(O)[C@H]2N1[*:1])[*:2]].[meV]}$PEPTIDE1,PEPTIDE1,1:R1-12:R2$$$V2.0)
LD90 (Meloidogyne incognita): 2 to 5 µg/mL

CC[C@H](C)[C@@H]1NC(=O)CNC(=O)[C@@H]2Cc3c([nH]c4cc(O)ccc34)[S+]([O-])C[C@H](NC(=O)CNC1=O)C(=O)N[C@@H](CC(=O)O)C(=O)N1C[C@H](O)C[C@H]1C(=O)N[C@@H]([C@@H](C)[C@@H](O)CO)C(=O)N2 (some centres undefined)
LD50 [1]: 0.2 to 0.5 mg/kg

CC(=O)N[C@@H](Cc1c[nH]c2ccccc12)C(=O)N[C@H](C(=O)NC(C)(C)C(=O)NC(C)(C)C(=O)N[C@@H](C)C(=O)N[C@@H](CCC(N)=O)C(=O)N[C@@H](C)C(=O)NC(C)(C)C(=O)N[C@@H](CO)C(=O)NC(C)(C)C(=O)N[C@@H](C)C(=O)N[C@@H](CC(C)C)C(=O)NC(C)(C)C(=O)N[C@@H](CCC(N)=O)C(=O)N[C@H](CO)CC(C)C)C(C)C (HELM PEPTIDE1{[ac].W.V.[Aib].[Aib].A.Q.A.[Aib].S.[Aib].A.L.[Aib].Q.[CC(C)C[C@@H](CO)N[*:1]]}$$$$V2.0)
zone of inhibition at 50 µg/disc (Staphylococcus aureus): 13 to 18 mm
zone of inhibition at 50 µg/disc [5]: 13 to 18 mm
zone of inhibition at 50 µg/disc (Bacillus subtilis [6]): 13 to 18 mm
zone of inhibition at 50 µg/disc (Bacillus subtilis [7]): 13 to 18 mm

CC[C@H](C)[C@@H]1NC(=O)[C@H](C(C)C)N(C)C(=O)[C@@H]2C[C@@]3(O)c4ccccc4N[C@H]3N2C(=O)CN(C)C(=O)[C@H]([C@@H](C)CC)N(C)C(=O)[C@H](C(C)C)NC(=O)[C@@H](OC(C)=O)N(C)C(=O)[C@H]([C@@H](C)[C@H](C)OC(=O)CC(C)(C)O)N(C)C(=O)[C@H](C(C)(C)O)N(C)C(=O)CN(C)C(=O)[C@H](C(C)C)N(C)C(=O)[C@H](C(C)C)N(C)C1=O (cyclo(I[NMeV][NMeV][Sar][NMeVal(β-OH)][X1][X2]V[NMeI][Sar][X3][NMeV]))
LD90 (Meloidogyne incognita): 2 to 5 µg/mL

CC[C@H](C)[C@@H]1NC(=O)[C@H](C(C)C)N(C)C(=O)[C@@H]2C[C@@]3(O)c4ccccc4N(O)[C@H]3N2C(=O)CN(C)C(=O)[C@H]([C@@H](C)CC)N(C)C(=O)[C@H](C(C)C)NC(=O)[C@@H](OC(C)=O)N(C)C(=O)[C@H]([C@@H](C)[C@H](C)OC(C)=O)N(C)C(=O)[C@H](C(C)(C)O)N(C)C(=O)CN(C)C(=O)[C@H](C(C)C)N(C)C(=O)[C@H](C(C)C)N(C)C1=O (cyclo(I[NMeV][NMeV][Sar][NMeVal(β-OH)][X6][X2]V[NMeI][Sar][X5][NMeV]))
LD90 (Meloidogyne incognita): 2 to 5 µg/mL

CC[C@H](C)[C@@H]1NC(=O)[C@H](C(C)C)N(C)C(=O)[C@H](Cc2c[nH]c3ccccc23)NC(=O)CN(C)C(=O)[C@H]([C@@H](C)CC)N(C)C(=O)[C@H](C(C)C)NC(=O)CN(C)C(=O)[C@H]([C@@H](C)CC)N(C)C(=O)[C@H](C(C)C)N(C)C(=O)CN(C)C(=O)[C@H](C(C)C)N(C)C(=O)[C@H](C(C)C)N(C)C1=O (HELM PEPTIDE1{I.[meV].[meV].[Sar].[meV].[meI].[Sar].V.[meI].[Sar].W.[meV]}$PEPTIDE1,PEPTIDE1,1:R1-12:R2$$$V2.0)
LD90 (Meloidogyne incognita): 2 to 5 µg/mL

CC[C@H](C)[C@@H]1NC(=O)[C@H](C(C)C)N(C)C(=O)[C@@H]2C[C@@]3(O)c4ccccc4N[C@H]3N2C(=O)CN(C)C(=O)[C@H]([C@@H](C)CC)N(C)C(=O)[C@H](C(C)C)NC(=O)[C@@H](O)N(C)C(=O)[C@H]([C@@H](C)[C@H](C)OC(=O)CC(C)(C)O)N(C)C(=O)[C@H](C(C)(C)O)N(C)C(=O)CN(C)C(=O)[C@H](C(C)C)N(C)C(=O)[C@H](C(C)C)N(C)C1=O (cyclo(I[NMeV][NMeV][Sar][NMeVal(β-OH)][X1][X4]V[NMeI][Sar][X3][NMeV]))
LD90 (Meloidogyne incognita): 2 to 5 µg/mL
